# Assay results from patent US12123019B2, “Uses of kinase inhibitors for inducing and maintaining pluripotency” (Whitehead Institute for Biomedical Research, priority 2014, dated 2024).
# Tests used:
# [1] = tested on: clonal line of OCT4-ΔPE-GFP+ cells derived in the absence of transgenes; test: Withdrawal of single kinase inhibitors or growth factors from 5i/L/FA medium; format: cell-based, human; settings: for differentiation and expression of pluripotency genes: FGF and Activin A removed together from 5i/L/FA
# Description: To investigate the relative contribution of individual components in 5i/L/FA medium, single kinase inhibitors or growth factors were removed from a clonal line of OCT4-ΔPE-GFP+ cells derived in the absence of transgenes. […] Therefore, the maintenance of OCT4-ΔPE-GFP reporter activity is dependent primarily on MEK inhibition and BRAF inhibition, while robust proliferation of GFP+ cells requires ROCK inhibition. Recombinant FGF enhances the induction of naïve reporter activity, but can be omitted in established GFP+ cells.
# [2] = tested on: WIBR3 OCT4-ΔPE-GFP+ human ESCs; test: Viability screen and titration: viable (DAPI-) OCT4-ΔPE-GFP+ cells after DOX withdrawal in 2i/L/SB590885; format: cell-based; settings: for concentration giving a significant improvement in the proportion of viable GFP+ cells (titration): titration of PD0325901, CHIR99021 and SB590885, two passages after DOX withdrawal
# Protocol: To screen for small molecules that support naïve human pluripotency, doxycycline was withdrawn from a clonal line of WIBR3 OCT4-ΔPE-GFP+ human ESCs derived in 2i/L/DOX. 24 h after Dox withdrawal, cells were dissociated in 0.25% trypsin/EDTA solution (Invitrogen) and seeded at a density of 5000 cells per individual well in 96 well plates on a MEF feeder layer in 2i/L supplemented with the ROCK-inhibitor Y-27632. After an additional 24 h, 2i/L medium in each individual 96 well was supplemented with a kinase inhibitor from the LINCS inhibitor library (Gray Laboratory, Dana Farber Cancer Institute, Boston, MA) at a final concentration of 1 μM. To improve experimental consistency the small molecule library was applied using the Caliper RapidPlate 96 well Liquid Handling System (Zymark, Westborough, MA). Briefly, a master plate containing 10 mM stock solution of the library in DMSO was first diluted to 100 μM in HEPES aqueous solution (daughter plate), and subsequently to 10 μM in N2B27 basal medium supplemented with 2i/L (granddaughter plate). This granddaughter plate was then diluted a further 10× in 2i/L medium, the final medium was pre-mixed and applied slowly to the 96 well assay plate. Following two medium changes during a seven day period the proportion of OCT4-ΔPE-GFP+ human ESCs in each well was assessed using the High-Throughput System on the LSRFortessa (Beckton-Dickinson, San Jose, CA). To screen for small molecules that improve the proportion of viable OCT4-ΔPE-GFP+ cells, this assay was modified by the addition of 1.0 μM SB590885 to each well and inclusion of a 10 minute DAPI (Life Technologies) staining prior to high-throughput FACS analysis. Viable cells were gated from the DAPI-negative fraction and subsequently assessed for GFP status.
# This led us to consider whether other small molecules could cooperate with 2i/L/SB590885 to improve the fraction of viable GFP+ cells. Inclusion of a live/dead assay enhanced the resolution of the 96 well high-throughput FACS analysis, allowing for more sensitive discrimination between the proportion of viable OCT4-ΔPE-GFP+ cells cultured in 2i/L/DOX vs. 2i/L/SB590885 (FIG. 3A). This viability assay was included in a modified screen in which GFP+ cells were cultured for two passages after DOX withdrawal in 2i/L/SB590885 supplemented with the kinase inhibitor library (FIG. 3B-C and FIG. 10A). […] A titration of the concentrations of PD0325901, CHIR99021 and SB590885 was also performed during two passages after DOX withdrawal followed by high-throughput FACS analysis (FIG. 3D). […] This is reminiscent of recent evidence that lowered GSK3 inhibition reduces differentiation and enhances the self-renewal of rat ESCs (Meek et al., 2013). […]
# [3] = tested on: OCT4-ΔPE-GFP+ naïve human ESCs; test: Maintenance of OCT4-ΔPE-GFP+ naïve human ESCs with additional media additives or changed basal medium; format: cell-based; settings: for proportion of OCT4-ΔPE-GFP+ cells: inhibitor included in 5i/L/A medium, three passages
# Description: The kinase inhibitors reported by Hanna and colleagues may have an additive effect in combination with the 5i/L/A medium. […] Another difference between the naïve human studies reported to date is the use of 20% knock-out serum replacement (KSR) or Albumax-containing medium (Gafni et al., 2013; Valamehr et al., 2014; Ware et al., 2014) vs. serum-free N2B27 medium (this study). The consequences of applying the inhibitor cocktail in the presence of 20% KSR was therefore investigated. […] It is concluded that the induction and maintenance of OCT4-ΔPE-GFP+ human ESCs is highly sensitive to the choice of basal medium.
# [4] = tested on: transgene-dependent naïve human ES cells (subclone of WIBR3); test: Titration and proliferation assay in transgene-dependent naïve human ES cell line after DOX withdrawal (GSK3/Wnt signal modulators); format: cell-based; settings: added to 4i/L/A: CHIR99021 1 μM replacing IM12, or IWR1 2.5 μM
# Protocol: A transgene-dependent naïve human embryonic stem (ES) cell line, a subclone of WIBR3, was used to titrate different concentrations of inhibitors in 5i/L/A (see Theunissen et al., Cell Stem Cell, 2014). The cell line used is dependent on Doxycycline (DOX) to maintain the expression of two lentiviral transgenes, KLF2 and NANOG. […] A titration assay was performed to determine the optimal concentrations of small molecule inhibitors to maintain naïve human DES cells. The cells were subject to sequential passaging by single cell dissociation at low density (1:10) under four conditions: 2i/L, 5i/L/A, t5i/L/A (0.2 μM GSK3 inhibitor IM12) and 4i/L/A (removal of GSK3 inhibitor IM12).
# The proliferation of naïve human ES cells in the presence of different Wnt signal modulators was quantified after the withdrawal of DOX from the transgene-dependent cell line described above. In a six-well plate, 1×10^5 cells were seeded per well and cells were dissociated and re-seeded at a 1:5 density for three successive passages. Cell numbers at successive passages were recorded under six conditions (n=2 per group): 2i/L/DOX (control), 2i/L, 5i/L/A, 4i/L/A (removal of GSK3 inhibitor IM12), 4i/L/A+CHIR99021 (1 μM), and 4i/L/A+IWR1 (2.5 μM).
# OCT4-ΔPE-GFP+ human ESCs = test: Validation of hit compounds in 6 well format: DOX withdrawal and culture in 2i/L plus hit compound; format: cell-based
# Description: To identify compounds that sustain OCT4-ΔPE-GFP activity in the absence of KLF2 and NANOG expression, a kinase inhibitor library was screened in the presence of 2i/L for a period of 7 days after DOX withdrawal in 96 well format (FIG. 2A). This screen identified 10 different hit compounds that partially rescued the proportion of GFP+ cells when assayed by high-throughput FACS analysis (FIG. 2B-C and FIG. 9A). Notable among these hits were four separate inhibitors of BRAF and four inhibitors of upstream receptor tyrosine kinases (RTKs), including DDR1, VEGFR1 and FGFR1. A validation experiment was then performed in 6 well format by withdrawing DOX and culturing the cells in 2i/L supplemented with each hit compound for up to 10 passages (FIG. 2D). Nearly all hit compounds maintained a proportion of GFP+ cells similar to that observed with DOX. […] Gene expression analysis 5 passages after DOX withdrawal confirmed the absence of KLF2 and NANOG transgene expression and retention of endogenous OCT4 and GFP transcripts (FIG. 2E and FIG. 9B). To validate these findings in an independent system DOX-inducible KLF2 and NANOG transgenes were introduced in a line of wild-type WIBR3 human ESCs. Upon application of DOX and 2i/L, dome-shaped colonies appeared that could be expanded clonally.
# [5] = tested on: OCT4-ΔPE-GFP-negative (primed) human ESCs; test: Removal of latent OCT4-ΔPE-GFP-negative cells during 2i/L/DOX induction; format: cell-based; settings: additional treatment with 0.1 μM PD173074 and 5 μM SB431542 upon addition of 2i/L/DOX
# Description: VSVG coated lentiviruses were generated in HEK-293 cells as described previously (Brambrink et al., 2008; Soldner et al., 2009; Soldner et al., 2011). Briefly, culture medium was changed 12 hr post-transfection and virus-containing supernatant was collected 48 to 72 hr post transfection. Viral supernatant was filtered through a […] filter. Virus-containing supernatants of the 2 reprogramming viruses (FUW-tetO-lox-hKLF2 and FUW-tetO-lox-hNANOG) were pooled and supplemented with the FUW-lox-M2rtTA virus and an equal volume of fresh culture medium. 1×10^6 human ESCs were seeded 24 hr before transduction in T75 flasks on matrigel in mTesr1 medium (STEMCELL Technologies). Two consecutive infections in the presence of […] of polybrene were performed over a period of 24 hr. Culture medium was changed 12 hr after the last infection. Five days after transduction, human ESCs were passaged using 0.25% trypsin/EDTA solution (Invitrogen) and re-plated on mitomycin C inactivated mouse embryonic fibroblast (MEF) feeder layers in conventional human ESC medium. To induce conversion to the naïve state, human ESCs were trypsinized and seeded at a density of 1×10^5 cells per 6 individual well on a MEF feeder layer in presence of ROCK inhibitor Y-27632. […]
# [6] = three passages after withdrawal of the component from 5i/L/FA
molecule,measurement,setting,value
CC(N)C1CCC(C(=O)Nc2ccncc2)CC1 (stereo not shown) [Y-27632],proliferation,[1]; [6],significant reduction
same,proportion of viable GFP+ cells,"[2]; Y-27632 (10 μM) added to 2i/L/SB590885 (0.5 μM), two passages",improved the proportion of viable GFP+ cells
hLIF: recombinant human LIF (made in-house),OCT4-ΔPE-GFP reporter activity,[1]; [6],unaffected
same,pluripotency gene expression,[1]; [6],unaffected
"FGF: recombinant fibroblast growth factor 2 (R&D systems, 8 ng/mL)",differentiation and expression of pluripotency genes,[1],more differentiation and reduced expression
same,any of the parameters examined,[1]; withdrawal of FGF from 5i/L/FA,no apparent effect
insulin: media additive,beneficial effect of additive,[3]; insulin added,A beneficial effect was not observed
Cc1cnc(-c2cnc(NCCNc3ccc(C#N)cn3)nc2-c2ccc(Cl)cc2Cl)[nH]1 [CHIR99021],proliferation of naïve human cells (cell number),[4],did not further stimulate the proliferation
same,proportion of viable GFP+ cells,[2]; higher concentrations of CHIR99021,opposite effect
same,proportion of viable GFP+ cells,[2]; lower concentrations of CHIR99021,improved the proportion of viable GFP+ cells
same,concentration giving a significant improvement in the proportion of viable GFP+ cells (titration),[2],0.3 µM
Cc1ccc(-n2nc(C(C)(C)C)cc2NC(=O)Nc2ccc(OCCN3CCOCC3)c3ccccc23)cc1 [BIRB796],proportion of OCT4-ΔPE-GFP+ cells,[3],did not affect
CN(C)CCOc1ccc(-c2nc(-c3ccncc3)c(-c3ccc4c(c3)CC/C4=N\O)[nH]2)cc1 [SB590885],OCT4-ΔPE-GFP reporter activity,[1]; [6],rapid and widespread loss
same,colony morphology,[1]; [6],rapid and widespread loss
same,pluripotency gene expression,[1]; [6],rapid and widespread loss
same,colony morphology and proliferation,"OCT4-ΔPE-GFP+ human ESCs; 6 well, 2i/L plus hit compound, up to 10 passages without DOX",preserved the best colony morphology and proliferation
same,colony morphology and expression of endogenous OCT4,"OCT4-ΔPE-GFP+ human ESCs; wild-type WIBR3 lines with DOX-inducible KLF2 and NANOG, maintained in 2i/L/SB590885 after DOX withdrawal",retaining both colony morphology and the expression of endogenous OCT4
same,viability (FACS-based live/dead discrimination assay),[2]; cells maintained in 2i/L/SB590885,reduced viability
same,concentration giving a significant improvement in the proportion of viable GFP+ cells (titration),[2],0.5 µM
Cc1[nH]c2ccccc2c1C1=C(NCCc2ccc(F)cc2)C(=O)N(C)C1=O [IM12],morphology upon long-term culture without DOX,[2]; CHIR99021 replaced with IM12,improved morphology
O=C(Nc1cccc2cccnc12)c1ccc(N2C(=O)[C@@H]3[C@H](C2=O)[C@@H]2C=C[C@H]3C2)cc1 [IWR1],proliferation of naïve human cells (cell number),[4],did not further stimulate the proliferation
COc1ccc(N(C(=O)Oc2c(C)cccc2C)c2ccnc(Nc3ccc(N4CCN(C)CC4)cc3)n2)c(OC)c1 [WH-4-023],OCT4-ΔPE-GFP reporter activity,[1]; [6],slight reduction
same,colony morphology,[1]; [6],change in morphology
same,proportion of viable OCT4-ΔPE-GFP+ cells after DOX withdrawal,"[2]; 1 μM WH-4-023 combined with optimized concentrations of PD0325901, CHIR99021 and SB590885",further improved
same,fraction of viable GFP+ cells,[2]; two passages after DOX withdrawal in 2i/L/SB590885 supplemented with kinase inhibitor library,improved the fraction of viable GFP+ cells
NC(=O)c1ccc(-c2nc(-c3ccc4c(c3)OCO4)c(-c3ccccn3)[nH]2)cc1 [SB431542],latent OCT4-ΔPE-GFP-negative cells,[5],removed almost entirely
O=C1c2ccccc2-c2n[nH]c3cccc1c23 [SP600125],expression of KLF4 and KLF2,[3]; SP600125 added to 5i/L/A,increase in expression of KLF4 and KLF2
same,proportion of OCT4-ΔPE-GFP+ cells,[3],did not affect
O=C(NOC[C@H](O)CO)c1ccc(F)c(F)c1Nc1ccc(I)cc1F [PD0325901],OCT4-ΔPE-GFP reporter activity,[1]; [6],rapid and widespread loss
same,colony morphology,[1]; [6],rapid and widespread loss
same,pluripotency gene expression,[1]; [6],rapid and widespread loss
same,concentration giving a significant improvement in the proportion of viable GFP+ cells (titration),[2],1 µM
"Activin A: cytokine (Peprotech, 20 ng/mL)",differentiation and expression of pluripotency genes,[1],more differentiation and reduced expression
same,OCT4-ΔPE-GFP reporter activity,[1]; [6],did not cause a reduction
